{"source": "patent US20250230193A1", "about": "“CYCLIC COMPOUND HAVING SELECTIVE KRAS INHIBITORY EFFECT ON HRAS AND NRAS” (CHUGAI SEIYAKU KABUSHIKI KAISHA, priority 2022, published 2025)", "key": {"[1]": {"molecular_target": "GDP-bound HRAS wild-type protein (Homo sapiens, UniProt P01112)", "sequence (P01112 whole entry)": "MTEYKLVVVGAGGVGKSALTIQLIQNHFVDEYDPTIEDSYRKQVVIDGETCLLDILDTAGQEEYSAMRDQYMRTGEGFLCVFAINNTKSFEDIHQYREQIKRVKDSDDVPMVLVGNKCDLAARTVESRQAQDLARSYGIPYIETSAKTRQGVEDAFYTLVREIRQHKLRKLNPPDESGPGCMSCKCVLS", "test": "Binding to HRAS by surface plasmon resonance (SPR), Single Cycle Kinetics"}, "[2]": {"molecular_target": "GDP-bound NRAS wild-type protein (Homo sapiens, UniProt P01111)", "sequence (P01111 whole entry)": "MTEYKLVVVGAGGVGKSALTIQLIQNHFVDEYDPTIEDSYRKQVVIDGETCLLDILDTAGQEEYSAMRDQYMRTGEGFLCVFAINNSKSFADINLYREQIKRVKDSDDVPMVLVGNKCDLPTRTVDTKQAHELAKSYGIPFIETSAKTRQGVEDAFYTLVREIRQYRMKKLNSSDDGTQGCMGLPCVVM", "test": "Binding to NRAS by surface plasmon resonance (SPR), Single Cycle Kinetics"}, "[3]": {"conditions": "KD ratio, GDP-bound HRAS wild-type vs GDP-bound KRAS wild-type, SPR"}, "[4]": {"conditions": "KD ratio, GDP-bound NRAS wild-type vs GDP-bound KRAS wild-type, SPR"}}, "note": "*1 amine or outer side, *2 acyl side, *3 side chain or, on linkers, in order; H or OH if unused. Where a SMILES comes first, the peptide text is derived from it. Bridges are numbered along the chain shown (N, C = ends). [ ]: non-standard residue; d: D form. The star is where a group is joined. hPhe(3-Cl-4-CF3) = N[C@@H](CCc1ccc(C(F)(F)F)c(Cl)c1)C(=O)O; NPrPhe(4-CF3) = CCCN[C@@H](Cc1ccc(C(F)(F)F)cc1)C(=O)O; X50 = C=CCN([C@@H](Cc1ccc(C)cc1)C(=O)[*:2])[*:1]; NMeGly(cPent) = CN[C@H](C(=O)O)C1CCCC1; Hyp = O=C(O)[C@@H]1C[C@@H](O)CN1; NMeD = CN[C@@H](CC(=O)O)C(=O)O; NMeL = CN[C@@H](CC(C)C)C(=O)O; Morpholide = C1CN(*)CCO1; Ac5c = NC1(C(=O)O)CCCC1; Ac4c = NC1(C(=O)O)CCC1; Sar = CNCC(=O)O"}
{"smiles": "CCO[C@@H]1C[C@H]2C(=O)NC3(CCC3)C(=O)N(C)[C@@H](C3CCCC3)C(=O)N(CC)[C@H](C(=O)N3CCOCC3)CC(=O)N(C)[C@@H](CC)C(=O)N[C@@H]([C@@H](C)CC)C(=O)N(C)CC(=O)N(C)[C@H]3C/C=C\\CCN(C3=O)[C@@H](Cc3ccc(C(F)(F)F)cc3)C(=O)N(C)CC(=O)N[C@@H](CCc3cc(F)c(C(F)(F)F)c(F)c3)C(=O)N2C1", "note": "[PP0979]", "values": [{"measurement": "HRAS/KRAS (ratio of KD value with respect to HRAS to KD value with respect to KRAS)", "setting": "[1]; [3]", "result": "A (a compound having 10 or more and less than 20 is denoted as A)"}, {"measurement": "NRAS/KRAS (ratio of KD value with respect to NRAS to KD value with respect to KRAS)", "setting": "[2]; [4]", "result": "AA (a compound having 20 or more is denoted as AA)"}]}
{"smiles": "CCCN1C(=O)CN(C)C(=O)CNC(=O)[C@H]([C@@H](C)CC)NC(=O)[C@H](CC(C)C)N(C)C(=O)C[C@@H](C(=O)N(C)C)N(C)C(=O)[C@H](C2CCCC2)N(C)C(=O)C2(CCC2)NC(=O)[C@@H]2C[C@@H](OCC)CN2C(=O)[C@H](CCc2ccc(C(F)(F)F)c(Cl)c2)NC(=O)CN(C)C(=O)[C@@H]1Cc1ccc(C(F)(F)F)cc1", "note": "[PP0422] ([NMeL]IG[Sar][NPrPhe(4-CF3)][Sar][hPhe(3-Cl-4-CF3)][Hyp](Et)[Ac4c][NMeGly(cPent)][NMeD]-NMe2; lactam N-11)", "values": [{"measurement": "HRAS/KRAS (ratio of KD value with respect to GDP-bound HRAS wild-type protein to KD value with respect to KRAS)", "setting": "[1]; KD ratio HRAS/KRAS, SPR", "result": "B (a compound having 3 or more and less than 10 is denoted as B)"}, {"measurement": "NRAS/KRAS (ratio of KD value with respect to GDP-bound NRAS wild-type protein to KD value with respect to KRAS)", "setting": "[2]; KD ratio NRAS/KRAS, SPR", "result": "B (a compound having 3 or more and less than 10 is denoted as B)"}]}
{"smiles": "CC[C@H](C)[C@@H]1NC(=O)[C@H](CC(F)(F)F)N(C)C(=O)C[C@@H](C(=O)N(C)C)N(C)C(=O)[C@H](C2CCCC2)N(C)C(=O)C2(CC(C)(C)C2)NC(=O)[C@@H]2CC(F)(F)CN2C(=O)[C@H](CCc2cc(F)c(C(F)(F)F)c(F)c2)NC(=O)CN(C)C(=O)[C@H](Cc2ccc(C(F)(F)F)cc2)N2CC/C=C\\C[C@@H](C2=O)N(C)C(=O)CN(C)C1=O", "note": "[PP1710]", "values": [{"measurement": "HRAS/KRAS (ratio of KD value for HRAS to KD value for KRAS)", "setting": "[1]; [3]", "result": "B (a compound having 3 or more and less than 10 is denoted as B)"}, {"measurement": "NRAS/KRAS (ratio of KD value for NRAS to KD value for KRAS)", "setting": "[2]; [4]", "result": "A (a compound having 10 or more and less than 20 is denoted as A)"}]}
{"smiles": "C=CCN1C(=O)CN(C)C(=O)CN(C)C(=O)[C@H]([C@@H](C)CC)NC(=O)[C@H](CC(C)C)N(C)C(=O)C[C@@H](C(=O)N2CCOCC2)N(C)C(=O)[C@H](C2CCCC2)N(C)C(=O)C2(CCCC2)NC(=O)[C@@H]2CCCN2C(=O)[C@H](CCc2ccc(C(F)(F)F)c(Cl)c2)NC(=O)CN(C)C(=O)[C@@H]1Cc1ccc(C)cc1", "note": "[PP0100] ([NMeL]I[Sar][Sar][X50][Sar][hPhe(3-Cl-4-CF3)]P[Ac5c][NMeGly(cPent)][NMeD]-Morpholide; lactam N-11)", "values": [{"measurement": "HRAS/KRAS (ratio of KD for GDP-bound HRAS wild-type to KD for KRAS)", "setting": "[1]; KD ratio HRAS/KRAS, SPR", "result": "C (A compound having a KD ratio of 0.1 or more and less than 3 is denoted as C)"}, {"measurement": "NRAS/KRAS (ratio of KD for GDP-bound NRAS wild-type to KD for KRAS)", "setting": "[2]; KD ratio NRAS/KRAS, SPR", "result": "B (a compound having 3 or more and less than 10 is denoted as B)"}]}
{"smiles": "C=CCC[C@H]1C(=O)N[C@@H]([C@@H](C)CC)C(=O)N(C)CC(=O)N(C)[C@H]2CCCCN(C2=O)[C@@H](Cc2ccc(C(F)(F)F)cc2)C(=O)N(C)CC(=O)N[C@@H](CCc2cc(F)c(C(F)(F)F)c(F)c2)C(=O)N2C[C@H](OCC)C[C@H]2C(=O)N[C@](C)(CC=C)C(=O)N(C)[C@@H](C2CCCC2)C(=O)N(C)[C@H](C(=O)N2CCOCC2)CC(=O)N1C", "note": "[PP0875]", "values": [{"measurement": "HRAS/KRAS (ratio of KD value with respect to HRAS to KD value with respect to KRAS)", "setting": "[1]; [3]", "result": "B (a compound having 3 or more and less than 10 is denoted as B)"}, {"measurement": "NRAS/KRAS (ratio of KD value with respect to NRAS to KD value with respect to KRAS)", "setting": "[2]; [4]", "result": "C (A compound having a KD ratio of 0.1 or more and less than 3 is denoted as C)"}]}
{"smiles": "CCC[C@H]1C(=O)N[C@@H](C2CCCC2)C(=O)N(C)CC(=O)N(C)[C@H]2C/C=C\\CCN(C2=O)[C@@H](Cc2ccc(C)cc2)C(=O)N(C)CC(=O)N[C@@H](CCc2ccc(C(F)(F)F)c(OC)c2)C(=O)N2CC3(CC3)C[C@H]2C(=O)NC2(CC(C)(C)C2)C(=O)N(C)[C@@H](CC(C)(C)C)C(=O)N(C)[C@H](C(=O)N(C)C)CC(=O)N1C", "note": "[PP3010]", "values": [{"measurement": "HRAS/KRAS (ratio of KD value with respect to GDP-bound HRAS wild-type protein to KD value with respect to KRAS)", "setting": "[1]; KD ratio HRAS/KRAS, SPR, GDP-bound wild-type proteins", "result": "B (a compound having 3 or more and less than 10 is denoted as B)"}, {"measurement": "NRAS/KRAS (ratio of KD value with respect to GDP-bound NRAS wild-type protein to KD value with respect to KRAS)", "setting": "[2]; KD ratio NRAS/KRAS, SPR, GDP-bound wild-type proteins", "result": "B (a compound having 3 or more and less than 10 is denoted as B)"}]}
{"smiles": "CCC(CC)[C@H]1C(=O)N(C)[C@H](C(=O)N(C)C)CC(=O)N(C)[C@@H](COC)C(=O)N[C@@H]([C@@H](C)CC)C(=O)N(C2CC2)CC(=O)N(C)[C@H]2C/C=C\\CCN(C2=O)[C@@H](Cc2ccc(C)cc2)C(=O)N(C)CC(=O)N[C@@H](CCc2cc(F)c(C(F)(F)F)c(F)c2)C(=O)N2C[C@H](OC(C)C)C[C@H]2C(=O)NC2(CC(C)(C)C2)C(=O)N1C", "note": "[PP2572]", "values": [{"measurement": "HRAS/KRAS (ratio of KD value with respect to GDP-bound HRAS wild-type protein to KD value with respect to KRAS)", "setting": "[1]; KD ratio HRAS/KRAS, class symbols", "result": "A (a compound having 10 or more and less than 20 is denoted as A)"}, {"measurement": "NRAS/KRAS (ratio of KD value with respect to GDP-bound NRAS wild-type protein to KD value with respect to KRAS)", "setting": "[2]; KD ratio NRAS/KRAS, class symbols", "result": "A (a compound having 10 or more and less than 20 is denoted as A)"}]}
{"smiles": "CCC[C@H]1C(=O)N[C@@H]([C@@H](C)CC)C(=O)N(C)CC(=O)N(C)[C@H]2C/C=C\\CCN(C2=O)[C@@H](Cc2ccc(C)cc2)C(=O)N(C)CC(=O)N[C@@H](CCc2ccc(C(F)(F)F)c(Cl)c2)C(=O)N2C[C@H](OCC)C[C@H]2C(=O)NC2(CC(C)(C)C2)C(=O)N(C)[C@@H](CC(C)(C)C)C(=O)N(C)[C@H](C(=O)N(C)C)CC(=O)N1C", "note": "[PP2230]", "values": [{"measurement": "HRAS/KRAS (ratio of KD value with respect to HRAS to KD value with respect to KRAS)", "setting": "[1]; SPR, GDP-bound HRAS wild-type vs GDP-bound KRAS wild-type", "result": "A (a compound having 10 or more and less than 20 is denoted as A)"}, {"measurement": "NRAS/KRAS (ratio of KD value with respect to NRAS to KD value with respect to KRAS)", "setting": "[2]; SPR, GDP-bound NRAS wild-type vs GDP-bound KRAS wild-type", "result": "A (a compound having 10 or more and less than 20 is denoted as A)"}]}
